Experimental data reported in ChEMBL document CHEMBL1201862, “PubChem BioAssay data set” (2004).
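Where inhibition never reached the appropriate level, the endpoint shown equals the highest concentration tested. Otherwise, values were interpolated linearly from a five-concentration, 48-hour dose response in 96-well plates. GI50 = concentration required for 50% inhibition of growth.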 The source made the active and inactive calls. Rule as the data show it: active = GI50 up to about 1.1 µM and inactive = higher.

How the values were obtained:
Experiment in all cases: growth of human tumour cells (NCI), 48 h
NCI-H226 = tested on: NCI-H226
LOX IMVI = tested on: LOX IMVI
SK-MEL-2 = tested on: SK-MEL-2
OVCAR-4 = tested on: OVCAR-4
SR = tested on: SR
OVCAR-5 = tested on: OVCAR-5
EKVX = tested on: EKVX
RPMI-8226 = tested on: RPMI-8226
SK-MEL-28 = tested on: SK-MEL-28
KM12 = tested on: KM12
SN12C = tested on: SN12C
CAKI-1 = tested on: CAKI-1
OVCAR-8 = tested on: OVCAR-8
HL-60 = tested on: HL-60
HOP-62 = tested on: HOP-62
MOLT-4 = tested on: MOLT-4
RXF 393 = tested on: RXF 393

Measured: GI50

CC(=O)NC1=C(C)C(=O)c2c(nc3n2CCC3O)C1=O (stereo not given)
inactive: NCI-H226 27.4 µM | LOX IMVI 29.7 µM | SK-MEL-2 19.5 µM | OVCAR-4 13.6 µM | SR 9.46 µM | OVCAR-5 > 64.3 µM | EKVX 24.7 µM | RPMI-8226 18.2 µM | SK-MEL-28 > 76.4 µM | KM12 > 100 µM | SN12C 37.3 µM | CAKI-1 > 100 µM | OVCAR-8 20.4 µM | HL-60 8.28 µM | HOP-62 > 100 µM | MOLT-4 3.44 µM | RXF 393 21.5 µM

Clc1ccc(C[P+]2(c3ccccc3)CCCCC2)cc1.[O-][Cl+3]([O-])([O-])[O-]
inactive: NCI-H226 > 100 µM | LOX IMVI 77.3 µM | SK-MEL-2 48.6 µM | SR 48.6 µM | OVCAR-5 > 100 µM | EKVX > 100 µM | RPMI-8226 32.2 µM | SK-MEL-28 62.8 µM | KM12 77.4 µM | SN12C > 100 µM | OVCAR-8 > 100 µM | HL-60 24.4 µM | HOP-62 > 100 µM | MOLT-4 86.5 µM | RXF 393 > 100 µM

O=C1N(c2ccccc2)C2(O)C(=O)c3ccccc3C2(O)N1c1ccccc1 (stereo not given)
inactive: NCI-H226 > 100 µM | LOX IMVI > 100 µM | SK-MEL-2 > 100 µM | OVCAR-4 > 100 µM | SR > 100 µM | OVCAR-5 > 100 µM | EKVX > 100 µM | RPMI-8226 > 100 µM | SK-MEL-28 > 100 µM | KM12 > 100 µM | SN12C > 100 µM | CAKI-1 > 100 µM | OVCAR-8 > 100 µM | HOP-62 > 100 µM | MOLT-4 > 100 µM | RXF 393 > 100 µM

C/C(=N\NC(=S)N(C)C)c1ncc[nH]1
inactive: LOX IMVI 3.08 µM | SK-MEL-2 3.69 µM | SR 2.81 µM | OVCAR-5 2.55 µM | EKVX 4.51 µM | RPMI-8226 4.2 µM | SK-MEL-28 7.48 µM | KM12 5.21 µM | SN12C 3.95 µM | OVCAR-8 3.94 µM | HL-60 2.63 µM | MOLT-4 3.06 µM | RXF 393 6 µM

CC1=C(C(=O)Nc2cc(=O)n(C)c(=O)n2C)C(c2ccc([N+](=O)[O-])cc2)C(C(=O)Nc2cc(=O)n(C)c(=O)n2C)=C(C)N1
inactive: NCI-H226 49.3 µM | LOX IMVI 54.6 µM | SK-MEL-2 > 100 µM | OVCAR-4 31.5 µM | OVCAR-5 > 100 µM | EKVX > 100 µM | RPMI-8226 59.6 µM | SK-MEL-28 > 100 µM | KM12 > 100 µM | SN12C > 100 µM | OVCAR-8 68.1 µM | HL-60 > 100 µM | HOP-62 18.1 µM | MOLT-4 52.4 µM | RXF 393 > 100 µM

CCC1CC2C(=O)N(c3ccccc3)C(=O)C2c2[nH]c3ccccc3c21 (stereo not given)
inactive: NCI-H226 11.4 µM | LOX IMVI 17.1 µM | OVCAR-4 4.61 µM | SR 23.1 µM | OVCAR-5 > 100 µM | EKVX 23.2 µM | RPMI-8226 22.5 µM | SK-MEL-28 38.6 µM | KM12 31.2 µM | SN12C 19.6 µM | OVCAR-8 12.2 µM | HL-60 21.6 µM | MOLT-4 20.2 µM | RXF 393 21.5 µM

CCc1ccc(Cc2ccc(CC)c(NC(=O)C(=O)C3NC(=S)NC3=O)c2CC)c(CC)c1NC(=O)C(=O)C1NC(=S)NC1=O (stereo not given)
inactive: LOX IMVI > 100 µM | SK-MEL-2 > 100 µM | OVCAR-4 > 100 µM | OVCAR-5 > 100 µM | EKVX > 100 µM | RPMI-8226 > 100 µM | SK-MEL-28 > 100 µM | KM12 > 100 µM | CAKI-1 > 100 µM | OVCAR-8 > 100 µM | HL-60 > 100 µM | HOP-62 > 100 µM | MOLT-4 > 100 µM | RXF 393 > 100 µM

COC(=O)C1=CNC(C(=O)OC)=NN1
inactive: NCI-H226 > 100 µM | SK-MEL-2 > 100 µM | OVCAR-4 > 100 µM | SR > 100 µM | EKVX > 10 µM | RPMI-8226 > 100 µM | SK-MEL-28 > 100 µM | KM12 > 100 µM | SN12C > 100 µM | CAKI-1 > 100 µM | OVCAR-8 > 100 µM | HL-60 > 100 µM | HOP-62 > 100 µM | MOLT-4 > 100 µM | RXF 393 > 100 µM

Nc1ccccc1SC(/C=C/NNC1=NN=C(c2ccccc2)C(c2ccccc2)N1)c1ccccc1 (stereo not given)
inactive: NCI-H226 13.7 µM | LOX IMVI 12.7 µM | SK-MEL-2 17.7 µM | OVCAR-4 14.9 µM | OVCAR-5 20.8 µM | EKVX 15.4 µM | RPMI-8226 2.96 µM | SK-MEL-28 13.7 µM | KM12 12.7 µM | SN12C 17 µM | CAKI-1 10.6 µM | OVCAR-8 18.1 µM | HL-60 3.32 µM | HOP-62 19.5 µM | MOLT-4 3.64 µM | RXF 393 14 µM

CCCc1c[nH]c(-c2ccc(-c3cc(CCC)c(C=O)[nH]3)s2)c1
inactive: NCI-H226 18.7 µM | LOX IMVI 14 µM | SK-MEL-2 15 µM | OVCAR-4 18.9 µM | SK-MEL-28 13.6 µM | KM12 14.7 µM | SN12C 15.6 µM | OVCAR-8 13.6 µM | HL-60 21.2 µM | MOLT-4 26.4 µM | RXF 393 21.7 µM

CC(=O)CC(=O)Nc1ccccc1C(F)(F)F
inactive: NCI-H226 > 100 µM | LOX IMVI > 100 µM | SK-MEL-2 > 100 µM | OVCAR-4 > 100 µM | OVCAR-5 > 100 µM | EKVX > 100 µM | RPMI-8226 > 100 µM | SK-MEL-28 > 100 µM | SN12C > 100 µM | CAKI-1 > 100 µM | OVCAR-8 > 100 µM | HL-60 > 100 µM | HOP-62 > 100 µM | MOLT-4 > 100 µM | RXF 393 > 100 µM

O=C1c2ccccc2S[C@@H](O)[C@@H]2CCCN12
inactive: LOX IMVI > 100 µM | SK-MEL-2 > 100 µM | SR > 100 µM | OVCAR-5 > 100 µM | EKVX > 100 µM | RPMI-8226 > 100 µM | SK-MEL-28 > 100 µM | KM12 > 100 µM | SN12C > 100 µM | OVCAR-8 > 100 µM | HL-60 > 100 µM | HOP-62 > 100 µM | MOLT-4 > 100 µM | RXF 393 > 100 µM

CCn1cc(C(=O)O)c(=O)c2cc(F)c(N3CCNCC3)nc21 [ENOXACIN]
inactive: NCI-H226 > 100 µM | LOX IMVI 86.3 µM | SK-MEL-2 > 100 µM | OVCAR-4 > 100 µM | SR 77.8 µM | OVCAR-5 > 100 µM | EKVX > 100 µM | RPMI-8226 > 100 µM | SK-MEL-28 > 100 µM | KM12 79.3 µM | SN12C 68.7 µM | OVCAR-8 > 100 µM | HL-60 > 100 µM | HOP-62 > 100 µM | MOLT-4 67.1 µM
